Source: US12054483B2, “Small molecule inhibitors of DYRK/CLK and uses thereof” (Arizona Board of Regents on Behalf of the University of …, priority 2018, dated 2024)

The compounds below were run against DYRK1A (Homo sapiens, UniProt Q13627) (assay: Affinity testing of compounds with DYRK1A (KD)). Conditions: DYRK1A affinity key classes.
Format: binding

SMILES | Kd
Cc1cc(-c2ccc3ncc(-c4ccc(CN5CCN[C@H](C)C5)cc4)n3n2)ccn1 [Compound 94, (R)-3-(4-((3-methylpiperazin-1-yl)methyl)phenyl)-6-(2-methylpyridin-4-yl)imidazo[1,2-b]pyridazine] | 0.5 to 100 nM
FC1(F)CCCN(Cc2ccc(-c3cnc4ccc(-c5ccncc5)nn34)cc2)C1 [Compound 95] | 501 to 10000 nM
FC1(F)CCN(Cc2ccc(-c3cnc4ccc(-c5ccncc5)nn34)cc2)C1 [Compound 98, 3-(4-((3,3-difluoropyrrolidin-1-yl)methyl)phenyl)-6-(pyridin-4-yl)imidazo[1,2-b]pyridazine] | 101 to 500 nM
FC1CN(Cc2ccc(-c3cnc4ccc(-c5ccncc5)nn34)cc2)C1 [Compound 99, 3-(4-((3-fluoroazetidin-1-yl)methyl)phenyl)-6-(pyridin-4-yl)imidazo[1,2-b]pyridazine] | 0.5 to 100 nM
CN1CCN(Cc2ccc(-c3cnc4ccc(-c5ccncc5)nn34)cc2)CC1 [Compound 100, 3-(4-((4-methylpiperazin-1-yl)methyl)phenyl)-6-(pyridin-4-yl)imidazo[1,2-b]pyridazine] | 101 to 500 nM
OC1CCCN(Cc2ccc(-c3cnc4ccc(-c5ccncc5)nn34)cc2)C1 (centres unmarked) [Compound 101, 1-(4-(6-(pyridin-4-yl)imidazo[1,2-b]pyridazin-3-yl)benzyl)piperidin-3-ol] | 101 to 500 nM
FC1(F)CN(Cc2ccc(-c3cnc4ccc(-c5ccncc5)nn34)cc2)C1 [Compound 102, 3-(4-((3,3-difluoroazetidin-1-yl)methyl)phenyl)-6-(pyridin-4-yl)imidazo[1,2-b]pyridazine] | 101 to 500 nM
CC(=O)N1CCN(Cc2ccc(-c3cnc4ccc(-c5ccncc5)nn34)cc2)CC1 [Compound 104, 1-(4-(4-(6-(pyridin-4-yl)imidazo[1,2-b]pyridazin-3-yl)benzyl)piperazin-1-yl)ethan-1-one] | 0.5 to 100 nM
COc1cc(-c2ccc3ncc(-c4ccc(CN5CCOCC5)cc4)n3n2)ccn1 [Compound 107, 4-(4-(6-(2-methoxypyridin-4-yl)imidazo[1,2-b]pyridazin-3-yl)benzyl)morpholine] | 101 to 500 nM
Nc1cc(-c2ccc3ncc(-c4ccc(CN5CCOCC5)cc4)n3n2)ccn1 [Compound 108, 4-(3-(4-(morpholinomethyl)phenyl)imidazo[1,2-b]pyridazin-6-yl)pyridin-2-amine] | 0.5 to 100 nM

Other lines, results leading:

Kd | SMILES
101 to 500 nM | c1cc(-c2ccc3ncc(-c4ccc(CN5CCOCC5)cc4)n3n2)ccn1 [Compound 96, 4-(4-(6-(pyridin-4-yl)imidazo[1,2-b]pyridazin-3-yl)benzyl)morpholine]
0.5 to 100 nM | c1cc(-c2ccc3ncc(-c4ccc(CN5CCCCC5)cc4)n3n2)ccn1 [Compound 97, 3-(4-(piperidin-1-ylmethyl)phenyl)-6-(pyridin-4-yl)imidazo[1,2-b]pyridazine]
101 to 500 nM | c1cc(-c2ccc3ncc(-c4ccc(CN5CCCC5)cc4)n3n2)ccn1 [Compound 103, 6-(pyridin-4-yl)-3-(4-(pyrrolidin-1-ylmethyl)phenyl)imidazo[1,2-b]pyridazine]
501 to 10000 nM | Fc1cnccc1-c1ccc2ncc(-c3ccc(CN4CCOCC4)cc3)n2n1 [Compound 105, 4-(4-(6-(3-fluoropyridin-4-yl)imidazo[1,2-b]pyridazin-3-yl)benzyl)morpholine]
501 to 10000 nM | N#Cc1cnccc1-c1ccc2ncc(-c3ccc(CN4CCOCC4)cc3)n2n1 [Compound 106, 4-(3-(4-(morpholinomethyl)phenyl)imidazo[1,2-b]pyridazin-6-yl)nicotinonitrile]
501 to 10000 nM | Fc1cnccc1-c1ccc2ncc(-c3ccc(CN4CCCCC4)cc3)n2n1 [Compound 109, 6-(3-fluoropyridin-4-yl)-3-(4-(piperidin-1-ylmethyl)phenyl)imidazo[1,2-b]pyridazine]
0.5 to 100 nM | Nc1cc(-c2ccc3ncc(-c4ccc(CN5CCCCC5)cc4)n3n2)ccn1 [Compound 110, 4-(3-(4-(piperidin-1-ylmethyl)phenyl)imidazo[1,2-b]pyridazin-6-yl)pyridin-2-amine]
